Laboratory results: patent US20110021547A1, “Substantially Pure and a Stable Crystalline Form of Bosentan” (ACTAVIS GROUP PTC EHF, priority 2008, published 2011)
Like-named read-outs stand apart in the source and are kept apart here.

What was measured:
[1] = cited from earlier work
[2] = Particle size distribution by laser diffraction (Malvern Master Sizer 2000); format: physicochemical
Text: As used herein, DX means that X percent of the particles have a diameter less than a specified diameter D. Thus, a D90 or d(0.9) of less than 300 microns means that 90 volume-percent of the micronized particles in a composition have a diameter less than 300 microns.
As used herein, “Particle Size Distribution (P.S.D)” means the cumulative volume size distribution of equivalent spherical diameters as determined by laser diffraction in Malvern Master Sizer 2000 equipment or its equivalent. “Mean particle size distribution, i.e., D50” correspondingly, means the median of said particle size distribution.

Tapped density = format: physicochemical
[3] = Polymorphic stability of form A5 after compression or particle size reduction; format: physicochemical
Procedure: The X-Ray powder diffraction was measured by an X-ray powder Diffractometer equipped with a Cu-anode (λ=1.54 Angstrom), X-ray source operated at 40 kV, 40 mA and a Ni filter is used to strip K-beta radiation. Two-theta calibration is performed using an NIST SRM 1976, Corundum standard. The sample was analyzed using the following instrument parameters: measuring range=3-45° 2θ; step width=0.01579°; and measuring time per step=0.11 second.

[4] = Storage stability of crystalline form A5 (temperature / relative humidity); format: physicochemical
Procedure: The term “remains stable”, as defined herein, refers to lack of formation of impurities, while being stored as described herein. The stability of crystalline form A5 is measured by maintaining crystalline form A5 at a temperature of about 40° C. at a relative humidity of about 75% for at least about 1 month, specifically for a period of 6 months, or at a temperature of about 25° C. at a relative humidity of about 60% for at least about 6 months.

| Compound | Particle Size Distribution d(0.1) [2] [microns] | Particle Size Distribution d(0.5) [2] [microns] | Particle Size Distribution d(0.9) [2] | further results |
| --- | --- | --- | --- | --- |
| COc1ccccc1Oc1c(NS(=O)(=O)c2ccc(C(C)(C)C)cc2)nc(-c2ncccn2)nc1OCCO [Bosentan, p-tert-butyl-N-[6-(2-hydroxyethoxy)-5-(2-methoxyphenoxy)-2-(2-pyrimidinyl)-4-pyrimidinyl]benzenesulfonamide monohydrate] |  |  |  | solubility in aqueous solution at low pH ([1]; pH 1.1): 0.1 mg/100 ml; solubility in aqueous solution at low pH ([1]; pH 4.0): 0.1 mg/100 ml; solubility in aqueous solution at low pH ([1]; pH 5.0): 0.2 mg/100 ml; solubility in water ([1]; water): 1.0 mg/100 ml |
| COc1ccccc1Oc1c(NS(=O)(=O)c2ccc(C(C)(C)C)cc2)nc(-c2ncccn2)nc1OCCO [Example 9E, Bosentan] | 17.03 | 58.84 | 127.11 microns |  |
| COc1ccccc1Oc1c(NS(=O)(=O)c2ccc(C(C)(C)C)cc2)nc(-c2ncccn2)nc1OCCO [Example 9C, Bosentan] | 7.89 | 31.92 | 69.43 microns |  |
| COc1ccccc1Oc1c(NS(=O)(=O)c2ccc(C(C)(C)C)cc2)nc(-c2ncccn2)nc1OCCO [Example 4, Bosentan] |  |  |  | Tapped density (Tapped density): 0.714 g/mL |
| COc1ccccc1Oc1c(NS(=O)(=O)c2ccc(C(C)(C)C)cc2)nc(-c2ncccn2)nc1OCCO [Example 5, Bosentan] |  |  |  | Tapped density (Tapped density): 0.626 g/mL |
| COc1ccccc1Oc1c(NS(=O)(=O)c2ccc(C(C)(C)C)cc2)nc(-c2ncccn2)nc1OCCO [Example 9, Bosentan] |  |  | less than 130 microns |  |
| COc1ccccc1Oc1c(NS(=O)(=O)c2ccc(C(C)(C)C)cc2)nc(-c2ncccn2)nc1OCCO [Example 8, Bosentan] |  |  | less than 60 microns |  |
| COc1ccccc1Oc1c(NS(=O)(=O)c2ccc(C(C)(C)C)cc2)nc(-c2ncccn2)nc1OCCO [bosentan crystalline form A5, Bosentan] |  |  |  | crystalline form and stability after mechanical particle size reduction ([3]; cutting, chipping, crushing, milling, grinding, micronizing): remains in the same crystalline faun and stable; crystalline form and stability after compression ([3]; pressure of about 7.5 tons/cm^2 for 10 to 15 minutes, checked by X-ray diffractometer): remains in the same crystalline form and stable; stability on storage, tendency to convert to other forms ([4]; about 25° C., relative humidity about 60%, at least about 6 months): more stable; crystalline form and stability on storage ([4]; about 25±2° C., relative humidity about 60±5%, 6 months): remains in the same crystalline form and stable; crystalline form and stability on storage ([4]; about 25±2° C., relative humidity about 60±5%, at least one month): remains in the same crystalline form and stable; stability on storage, tendency to convert to other forms ([4]; about 40° C., relative humidity about 75%, at least about 1 month, specifically 6 months): more stable; crystalline form and stability on storage ([4]; about 40±2° C., relative humidity about 75±5%, 6 months): remains in the same crystalline form and stable; crystalline form and stability on storage ([4]; about 40±2° C., relative humidity about 75±5%, at least one month): remains in the same crystalline form and stable |
| COc1ccccc1Oc1c(NS(=O)(=O)c2ccc(C(C)(C)C)cc2)nc(-c2ncccn2)nc1OCCO [Example 3, Bosentan] |  |  |  | Tapped density (Tapped density): 0.668 g/mL |
| COc1ccccc1Oc1c(NS(=O)(=O)c2ccc(C(C)(C)C)cc2)nc(-c2ncccn2)nc1OCCO [Example 9B, Bosentan] | 11.76 | 38.96 | 78.25 microns |  |
| COc1ccccc1Oc1c(NS(=O)(=O)c2ccc(C(C)(C)C)cc2)nc(-c2ncccn2)nc1OCCO [Example 9A, Bosentan] |  | 28.95 | 120.88 microns |  |
| COc1ccccc1Oc1c(NS(=O)(=O)c2ccc(C(C)(C)C)cc2)nc(-c2ncccn2)nc1OCCO [Example 9D, Bosentan] | 14.85 | 53.73 | 109.61 microns |  |
| COc1ccccc1Oc1c(NS(=O)(=O)c2ccc(C(C)(C)C)cc2)nc(-c2ncccn2)nc1OCCO [Example 6, Bosentan] |  |  |  | Tapped density (Tapped density): 0.667 g/mL |
| COc1ccccc1Oc1c(NS(=O)(=O)c2ccc(C(C)(C)C)cc2)nc(-c2ncccn2)nc1OCCO [Example 7, Bosentan] | 13.39 | 85.61 | 231.09 microns |  |
